From patent US20210138025A1, “CATIONIC PEPTIDES WITH IMMUNOMODULATORY AND/OR ANTI-BIOFILM ACTIVITIES” (priority 2018, published 2021)
Non-standard residues stand in square brackets, D forms with d. No end group written: not given here. hArg = N=C(N)NCCCC[C@H](N)C(=O)O; Agb = N=C(N)NCC[C@H](N)C(=O)O; Agp = N=C(N)NC[C@H](N)C(=O)O; Orn = NCCC[C@H](N)C(=O)O; Dab = NCC[C@H](N)C(=O)O; Dap = NC[C@H](N)C(=O)O

Test system: S. aureus (MRSA SAP0017)
Type: cell-based, Staphylococcus aureus
Settings: for % Biofilm Inhibition: SPOT synthesized control peptides, determined as in Table 5, Table 7; for % Residual MRSA biofilm growth compared to untreated control: SPOT synthesized peptide, ~12.5 μM, clinical MRSA strain, crystal violet assay
Protocol: Methods of assessment of anti-biofilm activity: MRSA S. aureus strain SAP0017 biofilm formation was initially analyzed using a static abiotic solid surface assay as described elsewhere (de la Fuente-Nunez et al., 2012) and shown graphically in FIG. 2. Dilutions (1/100) of overnight cultures were incubated in BM2 biofilm-adjusted medium [62 mM potassium phosphate buffer (pH 7), 7 mM (NH4)2SO4, 2 mM MgSO4, 10 μM FeSO4, 0.4% (wt/vol) glucose, 0.5% (wt/vol) Casamino Acids], or a nutrient rich medium such as Tryptic soy broth supplemented with 1% glucose, in polypropylene microtiter plates (Falcon, United States) in the absence (control) or presence of peptide. Peptide was added at time zero (prior to adding the diluted, overnight cultures) in varying concentrations, and the amount biofilm formation was recorded after 22-46 h incubation for most bacteria. To quantify biofilm growth, planktonic cells were removed and biofilm cells adhering to the side of the wells were stained with crystal violet, and absorbance at 595 nm was measured using a microtiter plate reader (Bio-Tek Instruments Inc., United States).

Row | Substance | % Biofilm Inhibition [%] | % Residual MRSA biofilm growth compared to untreated control [%]
1 | C109 (VRLIVA[Orn]RIWRR-NH2; N-terminus assumed; SMILES CC[C@H](C)[C@H](NC(=O)[C@H](CCCNC(=N)N)NC(=O)[C@H](CCCN)NC(=O)[C@H](C)NC(=O)[C@@H](NC(=O)[C@@H](NC(=O)[C@H](CC(C)C)NC(=O)[C@H](CCCNC(=N)N)NC(=O)[C@@H](N)C(C)C)[C@@H](C)CC)C(C)C)C(=O)N[C@@H](Cc1c[nH]c2ccccc12)C(=O)N[C@@H](CCCNC(=N)N)C(=O)N[C@@H](CCCNC(=N)N)C(N)=O) [Peptide C109] | 104 | 
2 | VRLIVAVRIWOrnR (VRLIVAVRIW[Orn]R-NH2; N-terminus assumed; SMILES CC[C@H](C)[C@H](NC(=O)[C@H](CCCNC(=N)N)NC(=O)[C@@H](NC(=O)[C@H](C)NC(=O)[C@@H](NC(=O)[C@@H](NC(=O)[C@H](CC(C)C)NC(=O)[C@H](CCCNC(=N)N)NC(=O)[C@@H](N)C(C)C)[C@@H](C)CC)C(C)C)C(C)C)C(=O)N[C@@H](Cc1c[nH]c2ccccc12)C(=O)N[C@@H](CCCN)C(=O)N[C@@H](CCCNC(=N)N)C(N)=O) [Peptide 1018-k35] |  | 34
3 | OrnRLIVAVRIWRR ([Orn]RLIVAVRIWRR-NH2; N-terminus assumed; SMILES CC[C@H](C)[C@H](NC(=O)[C@H](CCCNC(=N)N)NC(=O)[C@@H](NC(=O)[C@H](C)NC(=O)[C@@H](NC(=O)[C@@H](NC(=O)[C@H](CC(C)C)NC(=O)[C@H](CCCNC(=N)N)NC(=O)[C@@H](N)CCCN)[C@@H](C)CC)C(C)C)C(C)C)C(=O)N[C@@H](Cc1c[nH]c2ccccc12)C(=O)N[C@@H](CCCNC(=N)N)C(=O)N[C@@H](CCCNC(=N)N)C(N)=O) [Peptide 1018-k25] |  | 44
4 | C60 (VRL[Agp]VAVRIWRR-NH2; N-terminus assumed; SMILES CC[C@H](C)[C@H](NC(=O)[C@H](CCCNC(=N)N)NC(=O)[C@@H](NC(=O)[C@H](C)NC(=O)[C@@H](NC(=O)[C@H](CNC(=N)N)NC(=O)[C@H](CC(C)C)NC(=O)[C@H](CCCNC(=N)N)NC(=O)[C@@H](N)C(C)C)C(C)C)C(C)C)C(=O)N[C@@H](Cc1c[nH]c2ccccc12)C(=O)N[C@@H](CCCNC(=N)N)C(=O)N[C@@H](CCCNC(=N)N)C(N)=O) [Peptide C60] | 104 | 
5 | C97 (VRL[Dab]VAVRIWRR; not fully specified (C-terminus)) [Peptide C97] | 102 | 
6 | C99 (VRLIV[Dab]VRIWRR; not fully specified (C-terminus)) [Peptide C99] | 100 | 
7 | C77 (VRLIVAVRI[Agb]RR; not fully specified (C-terminus); printed as VRLIVAVRIGbutRR) [Peptide C77] | 101 | 
8 | C93 (VRLIVAV[Dap]IWRR) [Peptide C93] | 71 | 
9 | C65 (VRLIVAVR[Agp]WRR) [Peptide C65] | 107 | 
10 | C101 (VRLIVAV[Dab]IWRR-NH2; N-terminus assumed; SMILES CC[C@H](C)[C@H](NC(=O)[C@H](CCN)NC(=O)[C@@H](NC(=O)[C@H](C)NC(=O)[C@@H](NC(=O)[C@@H](NC(=O)[C@H](CC(C)C)NC(=O)[C@H](CCCNC(=N)N)NC(=O)[C@@H](N)C(C)C)[C@@H](C)CC)C(C)C)C(C)C)C(=O)N[C@@H](Cc1c[nH]c2ccccc12)C(=O)N[C@@H](CCCNC(=N)N)C(=O)N[C@@H](CCCNC(=N)N)C(N)=O) [Peptide C101] | 103 | 
11 | C85 (VRLIVAVR[hArg]WRR) [Peptide C85] | 99 | 
12 | C84 (VRLIVA[hArg]RIWRR; not fully specified (C-terminus)) [Peptide C84] | 105 | 
13 | VRLIVAVHarIWRR (VRLIVAV[hArg]IWRR-NH2; N-terminus assumed; SMILES CC[C@H](C)[C@H](NC(=O)[C@H](CCCCNC(=N)N)NC(=O)[C@@H](NC(=O)[C@H](C)NC(=O)[C@@H](NC(=O)[C@@H](NC(=O)[C@H](CC(C)C)NC(=O)[C@H](CCCNC(=N)N)NC(=O)[C@@H](N)C(C)C)[C@@H](C)CC)C(C)C)C(C)C)C(=O)N[C@@H](Cc1c[nH]c2ccccc12)C(=O)N[C@@H](CCCNC(=N)N)C(=O)N[C@@H](CCCNC(=N)N)C(N)=O) [Peptide 1018-r32] |  | 45
14 | RQVRVKRWRARW (RQVRVKRWRARW-NH2) [Mmax-18] |  | 100
15 | KKQKKIWRRILV (KKQKKIWRRILV-NH2) [Mmax-16] |  | 105
16 | C63 (VRLIVA[Agp]RIWRR-NH2; N-terminus assumed; SMILES CC[C@H](C)[C@H](NC(=O)[C@H](CCCNC(=N)N)NC(=O)[C@H](CNC(=N)N)NC(=O)[C@H](C)NC(=O)[C@@H](NC(=O)[C@@H](NC(=O)[C@H](CC(C)C)NC(=O)[C@H](CCCNC(=N)N)NC(=O)[C@@H](N)C(C)C)[C@@H](C)CC)C(C)C)C(=O)N[C@@H](Cc1c[nH]c2ccccc12)C(=O)N[C@@H](CCCNC(=N)N)C(=O)N[C@@H](CCCNC(=N)N)C(N)=O) [Peptide C63] | 105 | 
17 | VRLIVAVRIWRHar (VRLIVAVRIWR[hArg]-NH2; N-terminus assumed; SMILES CC[C@H](C)[C@H](NC(=O)[C@H](CCCNC(=N)N)NC(=O)[C@@H](NC(=O)[C@H](C)NC(=O)[C@@H](NC(=O)[C@@H](NC(=O)[C@H](CC(C)C)NC(=O)[C@H](CCCNC(=N)N)NC(=O)[C@@H](N)C(C)C)[C@@H](C)CC)C(C)C)C(C)C)C(=O)N[C@@H](Cc1c[nH]c2ccccc12)C(=O)N[C@@H](CCCNC(=N)N)C(=O)N[C@@H](CCCCNC(=N)N)C(N)=O) [Peptide 1018-r36] |  | 27

Row | Substance | % Biofilm Inhibition [%] | % Residual MRSA biofilm growth compared to untreated control [%]
18 | HarRLIVAVRIWRR ([hArg]RLIVAVRIWRR-NH2; N-terminus assumed; SMILES CC[C@H](C)[C@H](NC(=O)[C@H](CCCNC(=N)N)NC(=O)[C@@H](NC(=O)[C@H](C)NC(=O)[C@@H](NC(=O)[C@@H](NC(=O)[C@H](CC(C)C)NC(=O)[C@H](CCCNC(=N)N)NC(=O)[C@@H](N)CCCCNC(=N)N)[C@@H](C)CC)C(C)C)C(C)C)C(=O)N[C@@H](Cc1c[nH]c2ccccc12)C(=O)N[C@@H](CCCNC(=N)N)C(=O)N[C@@H](CCCNC(=N)N)C(N)=O) [Peptide 1018-r25] |  | 64
19 | C79 (VRLIVAVRIWR[Agb]) [Peptide C79] | 72 | 
20 | C105 (VRLIVAVRIWR[Dab]) [Peptide C105] | 96 | 
21 | C74 (VRLIVA[Agb]RIWRR) [Peptide C74] | 106 | 
22 | C100 (VRLIVA[Dab]RIWRR-NH2; N-terminus assumed; SMILES CC[C@H](C)[C@H](NC(=O)[C@H](CCCNC(=N)N)NC(=O)[C@H](CCN)NC(=O)[C@H](C)NC(=O)[C@@H](NC(=O)[C@@H](NC(=O)[C@H](CC(C)C)NC(=O)[C@H](CCCNC(=N)N)NC(=O)[C@@H](N)C(C)C)[C@@H](C)CC)C(C)C)C(=O)N[C@@H](Cc1c[nH]c2ccccc12)C(=O)N[C@@H](CCCNC(=N)N)C(=O)N[C@@H](CCCNC(=N)N)C(N)=O) [Peptide C100] | 104 | 
23 | C62 (VRLIV[Agp]VRIWRR) [Peptide C62] | 106 | 
24 | C104 (VRLIVAVRIW[Dab]R) [Peptide C104] | 93 | 
25 | C69 (V[Agb]LIVAVRIWRR) [Peptide C69] | 81 | 
26 | C70 (VR[Agb]IVAVRIWRR) [Peptide C70] | 98 | 
27 | C98 (VRLI[Dab]AVRIWRR; not fully specified (C-terminus)) [Peptide C98] | 103 | 
28 | C64 (VRLIVAV[Agp]IWRR) [Peptide C64] | 107 | 
29 | C66 (VRLIVAVRI[Agp]RR) [Peptide C66] | 107 | 
30 | C88 (VR[Dap]IVAVRIWRR) [Peptide C88] | 104 | 
31 | C108 (VRLI[Orn]AVRIWRR-NH2; N-terminus assumed; SMILES CC[C@H](C)[C@H](NC(=O)[C@H](CC(C)C)NC(=O)[C@H](CCCNC(=N)N)NC(=O)[C@@H](N)C(C)C)C(=O)N[C@@H](CCCN)C(=O)N[C@@H](C)C(=O)N[C@H](C(=O)N[C@@H](CCCNC(=N)N)C(=O)N[C@H](C(=O)N[C@@H](Cc1c[nH]c2ccccc12)C(=O)N[C@@H](CCCNC(=N)N)C(=O)N[C@@H](CCCNC(=N)N)C(N)=O)[C@@H](C)CC)C(C)C) [Peptide C108] | 104 | 
32 | C107 (VRL[Orn]VAVRIWRR) [Peptide C107] | 71 | 
33 | DabRLIVAVRIWRR ([Dab]RLIVAVRIWRR-NH2; N-terminus assumed; SMILES CC[C@H](C)[C@H](NC(=O)[C@H](CCCNC(=N)N)NC(=O)[C@@H](NC(=O)[C@H](C)NC(=O)[C@@H](NC(=O)[C@@H](NC(=O)[C@H](CC(C)C)NC(=O)[C@H](CCCNC(=N)N)NC(=O)[C@@H](N)CCN)[C@@H](C)CC)C(C)C)C(C)C)C(=O)N[C@@H](Cc1c[nH]c2ccccc12)C(=O)N[C@@H](CCCNC(=N)N)C(=O)N[C@@H](CCCNC(=N)N)C(N)=O) [Peptide 1018-k13] |  | 59
34 | VRLIVHarVRIWRR (VRLIV[hArg]VRIWRR-NH2; N-terminus assumed; SMILES CC[C@H](C)[C@H](NC(=O)[C@H](CCCNC(=N)N)NC(=O)[C@@H](NC(=O)[C@H](CCCCNC(=N)N)NC(=O)[C@@H](NC(=O)[C@@H](NC(=O)[C@H](CC(C)C)NC(=O)[C@H](CCCNC(=N)N)NC(=O)[C@@H](N)C(C)C)[C@@H](C)CC)C(C)C)C(C)C)C(=O)N[C@@H](Cc1c[nH]c2ccccc12)C(=O)N[C@@H](CCCNC(=N)N)C(=O)N[C@@H](CCCNC(=N)N)C(N)=O) [Peptide 1018-r30] |  | 57
